Here are results for 29 compounds from US7101886B2, “Phenylalkyl and pyridylalkyl piperazine derivatives” (Warner Lambert Company, priority 2002, dated 2006).

The term melting point denotes the temperature, or range, at which the solid turns liquid. For orientation: Ki means the equilibrium dissociation constant of an inhibitor or competing ligand from its target.

Molecules are shown by their SMILES.

The target in one data set is T1, dopamine D2 receptor (Homo sapiens, UniProt P14416).
T1 construct: expressed in transfected cells; host or cells: CHO cells (CHO-hD2L), membrane preparation
Put plainly: Dopamine D2 receptor binding ([3H]spiperone radioligand binding). The settings on record: [3H]spiperone binding, membrane preparation from CHO-hD2L cells. The source says:
(§1) The ability of the compounds of this invention to bind to the dopamine D2 and serotonin 2A (5HT2A) receptors can be determined using conventional radioligand receptor binding assays. All receptors can be heterologously expressed in cell lines and experiments conducted in membrane preparations from the cell lines using procedures outlined below. IC50 concentrations can be determined by nonlinear regression of concentration-dependent reduction in specific binding. The Cheng-Prussoff equation can be used to convert the IC50 to Ki concentrations.
Dopamine D2 Receptor Binding:
[^3H]Spiperone binding to a membrane preparation from CHO-hD2L cells is carried out in 250 μl of 50 mM Tris-HCl buffer containing 100 mM NaCl, 1 mM MgCl2 and 1% DMSO at pH 7.4. Duplicate samples containing (in order of addition) the test compounds, 0.4 nM [^3H]spiperone and approximately 12 μg protein are incubated for 120 minutes at room temperature. Bound radioligand is separated by rapid filtration under reduced pressure through Whatman GF/B glass fiber filters previously treated with 0.3% polyethyleneimine. Radioactivity retained on the filter is determined by liquid scintillation spectrophotometry.
The title compounds of Examples 1–524 were tested using the above assay, in which specific binding determined in the presence of 1 mM haloperidol was 95%.

Data set [1] addresses T2, serotonin 2A (5HT2A) receptor (Homo sapiens, UniProt P28223).
T2 construct: expressed in transfected cells; host or cells: Swiss cells (Swiss-h5HT2A)
Put plainly: Serotonin 2A binding ([3H]ketanserin radioligand binding). The settings on record: [3H]ketanserin binding, Swiss-h5HT2A cell membranes.
Description: as §1
[^3H] Ketanserin binding to Swiss-h5HT2A cell membranes can be carried out in 250 μl of 50 mM Tris-HCl buffer pH 7.4. Duplicate samples containing (in order of addition) test compounds, 1.0 nM [^3H]ketanserin, and approximately 75 μg protein are incubated for 120 minutes at room temperature. Bound radioligand is separated by rapid filtration under reduced pressure through Whatman GF/B glass fiber filters previously treated with 0.3% polyethyleneimine. Radioactivity retained on the filter is determined by liquid scintillation spectrophotometry.
The title compounds of Examples 1–524 were tested using the above assay, in which specific binding determined in the presence of 1 mM ketanserin was 90%.

T1 sequence (P14416 whole entry): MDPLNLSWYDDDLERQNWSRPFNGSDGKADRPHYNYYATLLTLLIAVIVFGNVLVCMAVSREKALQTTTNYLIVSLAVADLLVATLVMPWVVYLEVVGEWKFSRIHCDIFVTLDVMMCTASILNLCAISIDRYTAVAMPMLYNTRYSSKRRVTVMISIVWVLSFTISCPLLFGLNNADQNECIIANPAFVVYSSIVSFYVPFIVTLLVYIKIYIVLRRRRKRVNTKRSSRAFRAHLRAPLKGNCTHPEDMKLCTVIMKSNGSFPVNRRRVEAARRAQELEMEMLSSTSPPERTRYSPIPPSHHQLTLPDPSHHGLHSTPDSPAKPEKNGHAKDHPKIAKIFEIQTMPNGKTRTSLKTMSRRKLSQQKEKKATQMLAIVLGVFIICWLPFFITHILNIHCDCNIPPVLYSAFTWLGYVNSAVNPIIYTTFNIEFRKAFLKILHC
T2 sequence (P28223 whole entry): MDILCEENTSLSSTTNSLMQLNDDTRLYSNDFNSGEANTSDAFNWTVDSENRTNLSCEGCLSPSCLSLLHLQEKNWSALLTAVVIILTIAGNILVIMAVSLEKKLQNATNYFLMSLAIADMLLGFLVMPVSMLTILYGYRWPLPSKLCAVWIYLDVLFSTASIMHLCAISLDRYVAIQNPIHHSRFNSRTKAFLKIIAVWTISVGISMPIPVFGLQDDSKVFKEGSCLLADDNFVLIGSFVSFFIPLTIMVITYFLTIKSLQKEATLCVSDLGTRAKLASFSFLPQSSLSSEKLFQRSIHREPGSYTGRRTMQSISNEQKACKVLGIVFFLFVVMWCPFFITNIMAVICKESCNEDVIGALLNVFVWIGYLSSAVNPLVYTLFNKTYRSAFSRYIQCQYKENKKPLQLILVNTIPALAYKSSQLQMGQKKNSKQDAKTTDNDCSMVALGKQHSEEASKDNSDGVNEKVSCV

`CC(=O)OC(C)C(=O)Nc1ccc(OCCN2CCN(c3nsc4ccccc34)CC2)cc1` (centres unmarked) gave a melting point of 90 °C.

The compound `COc1cc(CCN2CCN(c3nsc4ccccc34)CC2)c(NC(C)=O)cc1OC` returned a melting point of 120 °C.

Turning to `COc1cc(CCN2CCN(c3nsc4ccccc34)CC2)c(NS(=O)(=O)c2ccccc2C)cc1OC` [Example 58, N-{2-[2-(4-1,2-BENZISOTHIAZOL-3-YL-PIPERAZIN-1-YL)-ETHYL]-4,5-DIMETHOXY-PHENYL}-2-METHYL-BENZENESULFONAMIDE], the melting point stood at 187 °C.

Take `O=C1c2ccccc2CN1c1ccccc1CCN1CCN(c2nsc3ccccc23)CC1` [Example 529, 2-{2-[2-(4-BENZO[D]ISOTHIAZOL-3-YL-PIPERAZIN-1-YL)-ETHYL]-PHENYL}-2,3-DIHYDRO-ISOINDOL-1-ONE]: the melting point lay within 207.6 to 208 °C.

In turn, `COc1cc(CCN2CCN(c3nsc4ccccc34)CC2)c(NC(=O)Cc2ccc(Cl)cc2)cc1OC` showed a melting point of 152 °C.

In turn, `CC(=O)Nc1ccc(S(=O)(=O)Nc2ccc(OCCN3CCN(c4nsc5ccccc45)CC3)cc2)cc1` showed a melting point of 120 °C.

On to `COc1ccc(OC)c(S(=O)(=O)Nc2ccc(OCCN3CCN(c4nsc5ccccc45)CC3)cc2)c1` [Example 46, N-{4-[2-(4-1,2-BENZISOTHIAZOL-3-YL-PIPERAZIN-1-YL)-ETHOXY]-PHENYL}-2,5-DIMETHOXY-BENZENESULFONAMIDE], for which the melting point is 78 °C.

For the compound `O=S(=O)(Nc1ccc(OCCN2CCN(c3nsc4ccccc34)CC2)cc1)c1ccccc1` [Example 47, N-{4-[2-(4-1,2-BENZISOTHIAZOL-3-YL-PIPERAZIN-1-YL)-ETHOXY]-PHENYL}-BENZENESULFONAMIDE], the melting point is 65 °C.

The compound `O=C1c2ccccc2CN1c1cccc(CCN2CCN(c3nsc4ccccc34)CC2)c1` [Example 528, 2-{3-[2-(4-BENZO[D]ISOTHIAZOL-3-YL-PIPERAZIN-1-YL)-ETHYL]-PHENYL}-2,3-DIHYDRO-ISOINDOL-1-ONE] showed a melting point of 154.5 to 155.3 °C.

In turn, `COc1cc(CCN2CCN(c3nsc4ccccc34)CC2)c(NC(=O)Cc2ccccc2)cc1OC` came in with a melting point of 142 °C.

`O=C1c2ccccc2CN1c1ccc(CCN2CCN(c3nsc4ccccc34)CC2)cc1` [Example 527, 2-{4-[2-(4-BENZO[D]ISOTHIAZOL-3-YL-PIPERAZIN-1-YL)-ETHYL]-PHENYL}-2,3-DIHYDRO-ISOINDOL-1-ONE] had a melting point of 175.9 °C.

In turn, `COc1cc(CCN2CCN(c3nsc4ccccc34)CC2)c(NC(=O)C=C(C)C)cc1OC` [Example 65, 3-M ETHYL-BUT-2-ENOIC ACID {2-[2-(4-1,2-BENZISOTHIAZOL-3-YL-PIPERAZIN-1-YL)-ETHYL]-4,5-DIMETHOXY-PHENYL}-AMIDE] had a melting point of 58 °C.

Regarding `Cn1cnc(S(=O)(=O)Nc2ccc(OCCN3CCN(c4nsc5ccccc45)CC3)cc2)c1` [Example 44, 1-METHYL-1H-IMIDAZOLE-4-SULFONIC ACID {4-[2-(4-1,2-BENZISOTHIAZOL-3-YL-PIPERAZIN-1-YL)-ETHOXY]-PHENYL}-AMIDE], the melting point was determined as 176 °C.

Regarding `COc1cc(CCN2CCN(c3nsc4ccccc34)CC2)c(NC(=O)NC2CCCCC2)cc1OC` [Example 63, 1-{2-[2-(4-1,2-BENZISOTHIAZOL-3-YL-PIPERAZIN-1-YL)-ETHYL]-4,5-DIMETHOXY-PHENYL}-3-CYCLOHEXYL-UREA], the melting point came to 156 °C.

`COc1cc(CCN2CCN(c3nsc4ccccc34)CC2)c(NC(=O)Nc2ccc(F)cc2)cc1OC` [Example 62, 1-{2-[2-(4-1,2-BENZISOTHIAZOL-3-YL-PIPERAZIN-1-YL)-ETHYL]-4,5-DIMETHOXY-PHENYL}-3-(4-FLUORO-PHENYL)-UREA]: the melting point was 211 °C.

In the case of `Cc1nc(S(=O)(=O)Nc2ccc(OCCN3CCN(c4nsc5ccccc45)CC3)cc2)cn1C`, the melting point was determined as 227 °C.

As to `CC(C)=CC(=O)Nc1ccccc1CCN1CCN(c2nsc3ccccc23)CC1` [Example 50, 3-METHYL-BUT-2-ENOIC ACID {2-[2-(4-1,2-BENZISOTHIAZOL-3-YL-PIPERAZIN-1-YL)-ETHYL]-PHENYL}-AMIDE], the melting point came to 52 °C.

As to `Cc1cc(C(=O)Nc2ccc(CCN3CCN(c4nsc5ccccc45)CC3)cc2)c(C)o1` [Example 27, 2,5-DIMETHYL-FURAN-3-CARBOXYLIC ACID {4-[2-(4-1,2-BENZISOTHIAZOL-3-YL-PIPERAZIN-1-YL)-ETHYL]-PHENYL}-AMIDE], the Ki at dopamine D2 receptor turned out to be 6.32 nM; in data set [1] it was 1.46 nM.

In turn, `Cc1nn(C)c(Cl)c1S(=O)(=O)Nc1ccc(OCCN2CCN(c3nsc4ccccc34)CC2)cc1` came in with a melting point of 85 °C.

The compound `COc1cc(CCN2CCN(c3nsc4ccccc34)CC2)c(NS(=O)(=O)c2c(C)nn(C)c2C)cc1OC` had a melting point of 196 °C.

As for `COc1cc(CCN2CCN(c3nsc4ccccc34)CC2)c(NC(=O)Cc2cccs2)cc1OC`, the melting point was found to be 135 °C.

`CC(C)=CC(=O)Nc1ccc(F)cc1CCN1CCN(c2nsc3ccccc23)CC1` [Example 64, 3-METHYL-BUT-2-ENOIC ACID {2-[2-(4-1,2-BENZISOTHIAZOL-3-YL-PIPERAZIN-1-YL)-ETHYL]-4-FLUORO-PHENYL}-AMIDE] returned a melting point of 175 °C.

Take `COc1cc(CCN2CCN(c3nsc4ccccc34)CC2)c(NC(=O)Nc2c(C)cccc2C)cc1OC`: the melting point was found to be 96 °C.

The compound `O=C(Cc1cccs1)Nc1ccc(OCCN2CCN(c3nsc4ccccc34)CC2)cc1` returned a melting point of 142 °C.

`COc1cc(CCN2CCN(c3nsc4ccccc34)CC2)c(NS(=O)(=O)c2cn(C)c(C)n2)cc1OC`: the melting point was 233 °C.

Turning to `O=C1c2ccccc2CN1c1ccc(OCCN2CCN(c3nsc4ccccc34)CC2)cc1` [Example 530, 2-{4-[2-(4-BENZO[D]ISOTHIAZOL-3-YL-PIPERAZIN-1-YL)-ETHOXY]-PHENYL}-2,3-DIHYDRO-ISOINDOL-1-ONE], the melting point lay in the range of 166.4 to 166.6 °C.

In the case of `Cc1cc(C(=O)Nc2ccc(CCN3CCN(c4nsc5ccccc45)CC3)cc2)n(C)n1` [Example 102, 2,5-DIMETHYL-2H-PYRAZOLE-3-CARBOXYLIC ACID {4-[2-(4-1,2-BENZISOTHIAZOL-3-YL-PIPERAZIN-1-YL)-ETHYL]-PHENYL}-AMIDE], the values for the Ki (at dopamine D2 receptor; in data set [1]) were 8.2 nM and 0.25 nM, respectively.

Consider `COc1cccc(S(=O)(=O)Nc2ccc(CCN3CCN(c4nsc5ccccc45)CC3)cc2)c1` [Example 364, N-{4-[2-(4-1,2-BENZISOTHIAZOL-3-YL-PIPERAZIN-1-YL)-ETHYL]-PHENYL}-3-METHOXY-BENZENESULFONAMIDE], for which the inhibition constant Ki was found to be 8.58 nM on dopamine D2 receptor and 0.29 nM in data set [1].

For the compound `COc1cc(CCN2CCN(c3nsc4ccccc34)CC2)c(NS(=O)(=O)c2ccccc2F)cc1OC` [Example 56, N-{2-[2-(4-1,2-BENZISOTHIAZOL-3-YL-PIPERAZIN-1-YL)-ETHYL]-4,5-DIMETHOXY-PHENYL}-2-FLUORO-BENZENESULFONAMIDE], the melting point was 167 °C.
